Measured values from the supplement of paper PMC10307832.

Tests used:
Assay in all cases: relative viability (nuclei count vs DMSO), 5 days (fraction); higher = more cells survive
[1] = compound: CN1CCC(CNc2ccc3ncc(-c4cccc(OC(F)(F)F)c4)n3n2)CC1 [SGI-1776] + O=C(CCCCCCC(=O)Nc1ccccc1)NO [Vorinostat] (partner 1 µM)
How it was run: (§1)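 Cells from lung cancer lines were seeded into 1536-well plates and, one day later, dosed by pin tool. Treatments were either a single drug or a fixed dose of an anchor drug with five library-drug doses (not always all listed) in √10 steps. After 5 days, nuclei were stained in a one-step fixation (final 0.05% Triton X-100, 1% formaldehyde, 1 ug/ml Hoechst) and counted on 4× images, and relative viability is the treated-to-vehicle nuclei ratio, as the median of duplicate plates.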

[2] = compound: Nc1ccccc1NC(=O)c1ccc(CNC(=O)OCc2cccnc2)cc1 [Entinostat] + O=C(CCCCCCC(=O)Nc1ccccc1)NO [Vorinostat] (partner 1 µM)
How it was run: as §1

[3] = compound: C1COCCN1C2=NC(=NC3=C2OC4=C3C=CC=N4)C5=CC(=CC=C5)NC(=O)C6=CN=C(C=C6)N + CCNC(=O)c1noc(-c2cc(C(C)C)c(O)cc2O)c1-c1ccc(CN2CCOCC2)cc1 [Luminespib] (partner 0.01 µM)
How it was run: as §1

[4] = compound: Nc1ccccc1NC(=O)c1ccc(CNC(=O)OCc2cccnc2)cc1 [Entinostat] + CS(=O)(=O)N1CCN(Cc2cc3nc(-c4cccc5[nH]ncc45)nc(N4CCOCC4)c3s2)CC1 [Pictilisib] (partner 1 µM)
How it was run: as §1

Cell Line	relative viability ([1]; first compound 0.08 µM)	relative viability ([1]; first compound 0.8 µM)	relative viability ([1]; first compound 2.53 µM)	relative viability ([1]; first compound 8 µM)	relative viability ([2]; first compound 0.02 µM)	relative viability ([2]; first compound 0.06325 µM)	relative viability ([2]; first compound 0.2 µM)	relative viability ([2]; first compound 0.6325 µM)	relative viability ([2]; first compound 2 µM)	relative viability ([3]; first compound 0.02 µM)	relative viability ([3]; first compound 0.06325 µM)	relative viability ([3]; first compound 0.2 µM)	relative viability ([3]; first compound 0.6325 µM)	relative viability ([3]; first compound 2 µM)	relative viability ([4]; first compound 0.02 µM)	relative viability ([4]; first compound 0.06325 µM)	relative viability ([4]; first compound 0.2 µM)	relative viability ([4]; first compound 0.6325 µM)	relative viability ([4]; first compound 2 µM)
NCI-H1993	1.13	0.626	0.523	0.457	0.841	0.661	0.73	0.453	0.351	0.906	0.776	0.707	0.802	0.689	0.878	0.876	0.916	0.888	0.833
NCI-H2009	0.756	0.761	0.671	0.588	0.664	0.72	0.762	0.581	0.416	1.07	1.07	0.999	1.01	0.725	0.811	0.941	0.882	0.73	0.546
NCI-H2023	0.795	0.8	0.713	0.463	0.541	0.536	0.318	0.118	0.0713	0.793	0.38	0.477	0.507	0.245	0.173	0.182	0.146	0.126	0.0933
NCI-H2085	0.841	0.865	0.763	0.753	0.731	0.763	0.788	0.608	0.419	0.386	0.46	0.402	0.372	0.327	0.477	0.388	0.378	0.382	0.403
NCI-H2087	0.927	0.783	0.443	0.773	1.07	0.407	0.697	0.451	0.157	0.146	0.16	0.137	0.204	0.142	0.741	0.822	0.826	0.353	0.315
NCI-H2126	0.709	0.801	0.77	0.698	0.74	0.883	0.733	0.314	0.317	0.892	0.894	0.871	0.845	0.566	0.44	0.545	0.47	0.301	0.298
NCI-H2170	0.83	0.825	0.853	0.76	0.803	0.72	0.683	0.476	0.265	0.579	0.893	0.723	0.606	0.584	0.38	0.375	0.325	0.235	0.167
NCI-H2228	0.613	0.884	0.679	0.429	0.675	0.683	0.761	0.406	0.32	0.143	0.194	0.209	0.115	0.111	0.289	0.285	0.292	0.253	0.161
